Data as given in the supplement of paper PMC10307832.

Columns and labels:
Assay in all cases: relative viability (nuclei count vs DMSO), 5 days (fraction); higher = more cells survive
Mirin + Navitoclax = compound: N=C1NC(=O)/C(=C/c2ccc(O)cc2)S1 [Mirin] + CC1(C)CCC(c2ccc(Cl)cc2)=C(CN2CCN(c3ccc(C(=O)NS(=O)(=O)c4ccc(N[C@H](CCN5CCOCC5)CSc5ccccc5)c(S(=O)(=O)C(F)(F)F)c4)cc3)CC2)C1 [Navitoclax] (partner 0.5 µM)
Summary of the method: (§1)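 Lung cancer cell lines in 1536-well plates got either a single drug or a fixed anchor-drug dose together with five library-drug doses (not always all listed) in √10 steps, by pin tool, on the day after seeding. Nuclei were counted after 5 days, and relative viability is the treated-to-vehicle ratio of nuclei counts. Values are medians of duplicate plates.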

[1] = compound: CCC1=CN=CN=C1N2CCN(CC2)CC3=NC4=C(N3)C=C(C=C4)C(F)(F)F + C[C@@H](Oc1cc(-c2cnn(C3CCNCC3)c2)cnc1N)c1c(Cl)ccc(F)c1Cl [Crizotinib] (partner 1 µM)
Summary of the method: as §1

Mirin + Phenformin = compound: N=C1NC(=O)/C(=C/c2ccc(O)cc2)S1 [Mirin] + N=C(N)NC(=N)NCCc1ccccc1 [Phenformin] (partner 250 µM)
Summary of the method: as §1

[2] = compound: CCC1=CN=CN=C1N2CCN(CC2)CC3=NC4=C(N3)C=C(C=C4)C(F)(F)F + CC(C)C[C@H](NC(=O)[C@H](Cc1ccccc1)NC(=O)c1cnccn1)B(O)O [Bortezomib] (partner 0.002 µM)
Summary of the method: as §1

UMC-11
relative viability (Mirin + Navitoclax; first compound 0.25 µM): 0.324
relative viability (Mirin + Navitoclax; first compound 0.7906 µM): 0.312
relative viability (Mirin + Navitoclax; first compound 2.5 µM): 0.283
relative viability (Mirin + Navitoclax; first compound 7.906 µM): 0.276
relative viability (Mirin + Navitoclax; first compound 25 µM): 0.209
relative viability ([1]; first compound 0.04 µM): 0.572
relative viability ([1]; first compound 0.1265 µM): 0.611
relative viability ([1]; first compound 0.4 µM): 0.621
relative viability ([1]; first compound 1.265 µM): 0.615
relative viability ([1]; first compound 4 µM): 0.906
relative viability (Mirin + Phenformin; first compound 0.25 µM): 0.351
relative viability (Mirin + Phenformin; first compound 0.7906 µM): 0.272
relative viability (Mirin + Phenformin; first compound 2.5 µM): 0.334
relative viability (Mirin + Phenformin; first compound 7.906 µM): 0.32
relative viability (Mirin + Phenformin; first compound 25 µM): 0.236
relative viability ([2]; first compound 0.04 µM): 0.703
relative viability ([2]; first compound 0.1265 µM): 0.672
relative viability ([2]; first compound 0.4 µM): 0.554
relative viability ([2]; first compound 1.265 µM): 0.701
relative viability ([2]; first compound 4 µM): 0.707
